Literature values, collected in publication PMC11171218, “N-Benzylated 5-Hydroxybenzothiophene-2-carboxamides as Multi-Targeted Clk/Dyrk Inhibitors and Potential Anticancer Agents” (Cancers, 2024).

Molecular target: Clk1 (Homo sapiens, UniProt P49759)
Design: method as in PMID 28561591, PMID 25221649
Conditions: Figure 1; ref [38],[45]; cited from earlier work

Sequence of Clk1 (P49759 whole entry): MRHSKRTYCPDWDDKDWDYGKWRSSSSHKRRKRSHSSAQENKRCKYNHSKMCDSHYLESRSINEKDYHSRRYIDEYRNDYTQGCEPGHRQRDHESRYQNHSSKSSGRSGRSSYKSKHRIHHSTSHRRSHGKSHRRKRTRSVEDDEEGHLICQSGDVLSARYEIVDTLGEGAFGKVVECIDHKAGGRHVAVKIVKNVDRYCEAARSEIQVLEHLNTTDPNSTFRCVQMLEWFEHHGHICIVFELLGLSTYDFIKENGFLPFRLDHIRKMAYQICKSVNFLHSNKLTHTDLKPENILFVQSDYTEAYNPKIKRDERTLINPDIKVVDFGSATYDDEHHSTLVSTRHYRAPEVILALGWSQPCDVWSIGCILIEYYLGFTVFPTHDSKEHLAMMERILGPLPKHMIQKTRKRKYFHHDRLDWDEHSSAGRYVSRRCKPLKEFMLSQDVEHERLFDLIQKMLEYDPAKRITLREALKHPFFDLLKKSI

Q: Which IC50 does the source give for CC(=O)c1cc2cc(O)ccc2s1 [Compound (i)] here?
A: 50 nM

Q: Which IC50 does the source give for Cc1ccc(C(=O)c2cc3cc(O)ccc3s2)cc1O [Compound (ii)] here?
A: 60 nM
